The record followed here is patent US10570121B2, “Substituted dihydroisoquinolinone compounds” (priority 2014, dated 2020).

One assay concerns the target WT EZH2 (Homo sapiens (Human), UniProt Q15910). Briefly: WT EZH2 nucleosome assay (10X SAM, high SAM conditions). Type of assay: biochemical. To be noted: 15 uM SAM, Ki app from competitive inhibition fit.
Another assay addresses EZH2 Mutant Y641N (Homo sapiens (Human), UniProt Q15910, Y641N). Briefly: EZH2 Mutant Y641N nucleosome assay. The format is biochemical. To be noted: PRC2 4-protein complex 6 nM, 1.5 μM SAM, HeLa oligonucleosomes.
[1] abbreviates: read-out: WT EZH2 Nucleosome assay (10X SAM) Ki.
Where [2] appears, read: read-out: EZH2 Mutant Y641N Nucleosome assay IC50.
[3] abbreviates: WT EZH2 Nucleosome assay (10X SAM) Ki (μM).
Where [4] appears, read: EZH2 Mutant Y641N Nucleosome assay IC50 (μM).

Read-outs that look alike come from different tables or passages of the source.

WT EZH2, sequence (Q15910 whole entry, looked up): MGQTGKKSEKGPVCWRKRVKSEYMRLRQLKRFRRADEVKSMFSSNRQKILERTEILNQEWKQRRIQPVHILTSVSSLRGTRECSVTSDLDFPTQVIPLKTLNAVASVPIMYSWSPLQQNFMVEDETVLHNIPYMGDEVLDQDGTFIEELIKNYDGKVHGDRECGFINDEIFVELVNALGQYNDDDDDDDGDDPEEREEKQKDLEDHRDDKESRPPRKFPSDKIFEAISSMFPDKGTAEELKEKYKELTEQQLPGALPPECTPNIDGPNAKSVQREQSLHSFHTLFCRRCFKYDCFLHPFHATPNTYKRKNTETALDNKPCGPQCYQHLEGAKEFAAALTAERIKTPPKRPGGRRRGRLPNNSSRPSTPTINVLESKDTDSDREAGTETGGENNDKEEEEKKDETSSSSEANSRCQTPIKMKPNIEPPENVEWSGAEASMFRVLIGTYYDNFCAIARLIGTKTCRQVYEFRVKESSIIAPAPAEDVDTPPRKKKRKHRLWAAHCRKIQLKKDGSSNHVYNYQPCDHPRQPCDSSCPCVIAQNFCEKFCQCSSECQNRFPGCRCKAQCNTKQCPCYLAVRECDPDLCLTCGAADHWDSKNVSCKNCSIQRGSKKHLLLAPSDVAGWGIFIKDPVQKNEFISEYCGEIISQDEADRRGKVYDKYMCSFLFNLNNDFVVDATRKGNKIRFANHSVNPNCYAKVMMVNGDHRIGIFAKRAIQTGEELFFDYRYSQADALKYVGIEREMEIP
WT EZH2, sequence (O75530 whole entry partner, looked up): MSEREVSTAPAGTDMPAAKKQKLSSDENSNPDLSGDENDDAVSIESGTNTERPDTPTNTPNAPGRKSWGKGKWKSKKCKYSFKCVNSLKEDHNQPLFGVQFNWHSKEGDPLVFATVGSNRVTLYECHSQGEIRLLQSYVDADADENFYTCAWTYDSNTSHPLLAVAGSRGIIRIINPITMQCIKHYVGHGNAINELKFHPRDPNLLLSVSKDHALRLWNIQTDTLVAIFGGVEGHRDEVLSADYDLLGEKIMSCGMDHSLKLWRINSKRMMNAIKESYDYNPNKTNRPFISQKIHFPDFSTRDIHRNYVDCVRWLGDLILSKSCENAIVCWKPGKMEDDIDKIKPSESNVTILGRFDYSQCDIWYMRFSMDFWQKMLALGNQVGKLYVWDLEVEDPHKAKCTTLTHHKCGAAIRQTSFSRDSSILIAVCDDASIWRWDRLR
WT EZH2, sequence (Q15022 whole entry partner, looked up): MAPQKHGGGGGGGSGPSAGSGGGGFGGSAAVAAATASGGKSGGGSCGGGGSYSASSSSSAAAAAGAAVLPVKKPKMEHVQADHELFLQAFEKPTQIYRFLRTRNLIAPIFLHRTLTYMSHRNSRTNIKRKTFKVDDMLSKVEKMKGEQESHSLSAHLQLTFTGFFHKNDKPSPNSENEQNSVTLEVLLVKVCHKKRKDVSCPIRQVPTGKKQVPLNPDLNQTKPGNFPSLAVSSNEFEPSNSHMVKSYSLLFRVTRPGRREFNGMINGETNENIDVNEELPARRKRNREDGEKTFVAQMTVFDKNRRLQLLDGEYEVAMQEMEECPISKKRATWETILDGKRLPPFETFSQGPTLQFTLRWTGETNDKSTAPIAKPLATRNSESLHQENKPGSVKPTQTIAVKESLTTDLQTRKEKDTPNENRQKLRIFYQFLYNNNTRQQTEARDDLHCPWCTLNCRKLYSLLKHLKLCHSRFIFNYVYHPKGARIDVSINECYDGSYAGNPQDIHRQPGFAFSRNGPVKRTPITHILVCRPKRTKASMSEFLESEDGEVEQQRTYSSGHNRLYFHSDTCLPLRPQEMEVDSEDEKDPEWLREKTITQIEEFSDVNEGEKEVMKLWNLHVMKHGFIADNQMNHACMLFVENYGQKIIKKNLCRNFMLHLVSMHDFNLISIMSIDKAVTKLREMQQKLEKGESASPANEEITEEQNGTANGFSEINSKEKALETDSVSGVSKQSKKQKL
WT EZH2, sequence (Q09028 whole entry partner, looked up): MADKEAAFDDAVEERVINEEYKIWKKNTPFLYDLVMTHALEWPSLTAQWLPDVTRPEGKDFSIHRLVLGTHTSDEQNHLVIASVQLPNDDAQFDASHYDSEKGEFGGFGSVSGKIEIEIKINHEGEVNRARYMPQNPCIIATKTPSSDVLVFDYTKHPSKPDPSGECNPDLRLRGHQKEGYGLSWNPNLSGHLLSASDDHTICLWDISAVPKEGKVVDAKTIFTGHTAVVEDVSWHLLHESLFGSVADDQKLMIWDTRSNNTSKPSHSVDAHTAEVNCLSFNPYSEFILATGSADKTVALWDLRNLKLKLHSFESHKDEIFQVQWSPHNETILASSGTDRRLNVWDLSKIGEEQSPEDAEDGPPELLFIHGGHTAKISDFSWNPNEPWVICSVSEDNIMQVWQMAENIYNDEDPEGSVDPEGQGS
EZH2 Mutant Y641N, sequence (Q15910 whole entry Y641N, looked up): as the sequence (Q15910 whole entry, looked up) above, with Y641N counted along it
EZH2 Mutant Y641N, sequence (O75530 whole entry partner, looked up): as the sequence (O75530 whole entry partner, looked up) above
EZH2 Mutant Y641N, sequence (Q15022 whole entry partner, looked up): as the sequence (Q15022 whole entry partner, looked up) above
EZH2 Mutant Y641N, sequence (Q09028 whole entry partner, looked up): as the sequence (Q09028 whole entry partner, looked up) above

With `COC(c1cc(Cl)c2c(c1Cl)C(=O)N(Cc1c(C)cc(C)[nH]c1=O)CC2)C1CN(C)C1` (single isomer, unassigned) [Example 175], on WT EZH2 (setting [1]), the Ki stood at 0.085 µM. Further, the IC50 at EZH2 Mutant Y641N (setting [2]) is 1 µM.
Take `COC(c1cc(C)c2c(c1Cl)C(=O)N(Cc1c(C)cc(C)[nH]c1=O)CC2)C1CCN(C2COC2)CC1` (single isomer, unassigned) [Example 155]: at WT EZH2 (setting [1]), the Ki came out at 0.0013 µM. Besides, the IC50 on EZH2 Mutant Y641N (setting [2]) came to 0.027 µM.
For `COc1cc(C)[nH]c(=O)c1CN1CCc2c(Cl)cc(C(OC)C3CCOC3)c(Cl)c2C1=O` (single isomer, unassigned) [Example 127], the Ki on WT EZH2 (setting [3]) is 0.0002 µM. This compound also had an IC50 on EZH2 Mutant Y641N (setting [4]) of 0.0022 µM.
Consider `Cc1cc(C)c(CN2CCc3c(Cl)cc(C(CO)N4CCOCC4)c(Cl)c3C2=O)c(=O)[nH]1` (single isomer, unassigned) [Example 68], for which, on WT EZH2 (setting [1]), the Ki is 0.007 µM. For the same compound, at EZH2 Mutant Y641N (setting [2]), the IC50 was found to be 0.074 µM.
In the same order, the values of `COC(c1cc(C)c2c(c1Cl)C(=O)N(Cc1c(C)cc(C)[nH]c1=O)CC2)C1CCN(C(=O)CO)CC1` (single isomer, unassigned) [Example 168] are 0.0007 µM and 0.008 µM.
In the same order, the values of `COC(c1cc(Br)c2c(c1Cl)C(=O)N(Cc1c(C)cc(C)[nH]c1=O)CC2)C1CCN(C)CC1` (single isomer, unassigned) [Example 146] are 0.0001 µM and 0.0035 µM.
Consider `CCC(OC)c1cc(Cl)c2c(c1Cl)C(=O)N(Cc1c(OC)cc(C)[nH]c1=O)CC2` (single isomer, unassigned) [Example 107], for which, at WT EZH2 (setting [1]), the Ki amounted to 0.0019 µM. The IC50 on EZH2 Mutant Y641N (setting [2]) worked out at 0.018 µM.
Regarding `COC(c1cc(Cl)c2c(c1Cl)C(=O)N(Cc1c(C)cc(C)[nH]c1=O)CC2)C1CCS(=O)(=O)C1` (single isomer, unassigned) [Example 148], the Ki on WT EZH2 (setting [1]) came out at 0.056 µM. Further, the half-maximal inhibitory concentration (IC50) at EZH2 Mutant Y641N (setting [2]) stood at 0.439 µM.
As to `COC(c1cc(C)c2c(c1Cl)C(=O)N(Cc1c(C)cc(C)[nH]c1=O)CC2)C1CNC1` (racemic) [Example 178], the Ki at WT EZH2 (setting [1]) was determined as 0.003 µM. The half-maximal inhibitory concentration (IC50) on EZH2 Mutant Y641N (setting [2]) turned out to be 0.02 µM.
In turn, `COC(c1cc(Cl)c2c(c1Cl)C(=O)N(Cc1c(C)cc(C)[nH]c1=O)CC2)C1CCN(C)CC1` (single isomer, unassigned) [Example 137] gave a Ki on WT EZH2 (setting [3]) of 0.133 µM. In addition, at EZH2 Mutant Y641N (setting [4]), the concentration for half-maximal inhibition (IC50) was found to be 1.17 µM.
`COc1cc(C)[nH]c(=O)c1CN1CCc2c(C)cc([C@@H](OC)[C@@H]3CCOC3)c(Cl)c2C1=O` (single isomer, unassigned) [Example 85, 8-chloro-2-[(4-methoxy-6-methyl-2-oxo-1,2-dihydropyridin-3-yl)methyl]-7-{(S*)-methoxy[(3R*)-tetrahydrofuran-3-yl]methyl}-5-methyl-3,4-dihydroisoquinolin-1(2H)-one]: the Ki at WT EZH2 (setting [1]) amounted to 0.052 µM. For the same compound, the half-inhibitory concentration (IC50) at EZH2 Mutant Y641N (setting [2]) is 0.238 µM.
On the same counts, the results for `Cc1cc(C)c(CN2CCc3c(Cl)cc(C(C)C4CNC4)c(Cl)c3C2=O)c(=O)[nH]1` (single isomer, unassigned) [Example 190] are 0.016 µM and 0.1 µM.
Consider `Cc1cc(C)c(CN2CCc3c(Cl)cc(C(CO)N4CCC(F)(F)C4)c(Cl)c3C2=O)c(=O)[nH]1` (racemic) [Example 59], for which, on WT EZH2 (setting [1]), the Ki was 0.025 µM. Besides, on EZH2 Mutant Y641N (setting [2]), the IC50 was determined as 0.155 µM.
As to `CCOC(c1cc(Cl)c2c(c1Cl)C(=O)N(Cc1c(C)cc(C)[nH]c1=O)CC2)C1CS(=O)(=O)C1` (single isomer, unassigned) [Example 158], the Ki on WT EZH2 (setting [3]) amounted to 0.578 µM. Besides, the half-inhibitory concentration (IC50) against EZH2 Mutant Y641N (setting [4]) was 5.13 µM.
As for `Cc1cc(C)c(CN2CCc3c(Cl)cc([C@H](CO)[C@@H]4CCCO4)c(Cl)c3C2=O)c(=O)[nH]1` [Example 12, 5,8-dichloro-2-[(4,6-dimethyl-2-oxo-1,2-dihydropyridin-3-yl)methyl]-7-{(1R)-2-hydroxy-1-[(2S)-tetrahydrofuran-2-yl]ethyl}-3,4-dihydroisoquinolin-1(2H)-one], on WT EZH2 (setting [1]), the Ki is 0.004 µM. Besides, at EZH2 Mutant Y641N (setting [2]), the IC50 was 0.016 µM.
